Test results from patent US20240174618A1, “SUBSTITUTED (2-HETEROARYLOXYPHENYL)SULFONATES, SALTS THEREOF AND THEIR USE AS HERBICIDAL AGENTS” (Bayer Aktiengesellschaft, priority 2021, published 2024).

Assays:
Type in all cases: in vivo
[1] = test system: Amaranthus retroflexus (AMARE); assay: C. Herbicidal pre-emergence efficacy, AMARE; conditions: scored after about 3 weeks
Text: (§1) Seeds of monocotyledonous and dicotyledonous weed plants and crop plants were placed in plastic or organic planting pots and covered with soil. The compounds of the invention, formulated in the form of wettable powders (WP) or as emulsion concentrates (EC), were then applied to the surface of the covering soil as aqueous suspension or emulsion with addition of 0.5% additive at a water application rate equivalent to 600 l/ha (converted). After the treatment, the pots were placed in a greenhouse and kept under good growth conditions for the test plants. After about 3 weeks, the efficacy of the preparations was scored visually in comparison with untreated controls as percentages. For example, • 100% efficacy=plants have died, • 0% efficacy=like untreated control plants.
(§2) Tables C1a to C14b below show the effects of selected compounds of the general formula (I) according to table 1 on various harmful plants at an application rate corresponding to 320 g/ha or less, which were obtained by the experimental procedure mentioned above.

Viola tricolor (VIOTR) [2] = assay: C. Herbicidal pre-emergence efficacy, VIOTR; conditions: application rate 320 g/ha
Text: as §1, §2

Kochia scoparia (KCHSC) [3] = assay: C. Herbicidal pre-emergence efficacy, KCHSC
Text: as §1, §2

Zea mays (ZEAMX) = assay: D. Pre-emergence effect on useful plants, ZEAMX; conditions: useful plant
Text: as §1
(§3) Tables D1a to D5b below show the effects of selected compounds of the general formula (I) according to table 1 on various useful plants at an application rate corresponding to 320 g/ha or less, which were obtained by the experimental procedure mentioned above.

[4] = test system: Triticum aestivum (TRZAS); assay: D. Pre-emergence effect on useful plants, TRZAS; conditions: useful plant
Text: as §1, §3

Brassica napus (BRSNW) = assay: D. Pre-emergence effect on useful plants, BRSNW; conditions: useful plant
Text: as §1, §3

[5] = test system: Amaranthus retroflexus (AMARE); assay: E. Herbicidal post-emergence efficacy, AMARE
Description: (§4) Seeds of monocotyledonous and dicotyledonous weeds and crop plants were placed in sandy loam in plastic or organic planting pots, covered with soil and cultivated in a greenhouse under controlled growth conditions. 2 to 3 weeks after sowing, the test plants were treated at the one-leaf stage. The compounds of the invention, formulated in the form of wettable powders (WP) or as emulsion concentrates (EC), were then sprayed onto the green parts of the plants as aqueous suspension or emulsion with addition of 0.5% additive at a water application rate of 600 l/ha (converted). After the test plants had been kept in the greenhouse under optimum growth conditions for about 3 weeks, the activity of the preparations was rated visually in comparison to untreated controls.
(§5) For example, • 100% efficacy=plants have died, • 0% action=like untreated control plants.
(§6) Tables E1a to E12b below show the effects of selected compounds of the general formula (I) according to table 1 on various harmful plants at an application rate corresponding to 320 g/ha or less, which were obtained by the experimental procedure mentioned above.

[6] = test system: Pharbitis purpurea (PHBPU); assay: E. Herbicidal post-emergence efficacy, PHBPU
Description: as §4, §5, §6

Veronica persica (VERPE) = assay: E. Herbicidal post-emergence efficacy, VERPE
Description: as §4, §5, §6

Viola tricolor (VIOTR) [7] = assay: E. Herbicidal post-emergence efficacy, VIOTR
Description: as §4, §5, §6

Kochia scoparia (KCHSC) [8] = assay: E. Herbicidal post-emergence efficacy, KCHSC
Description: as §4, §5, §6

[9] = test system: Triticum aestivum (TRZAS); assay: F. Post-emergence effect on useful plants, TRZAS; conditions: useful plant, application rate 80 g/ha
Description: as §4, §5
Tables F1a to F4 below show the effects of selected compounds of the general formula (I) according to table 1 on various useful plants at an application rate corresponding to 320 g/ha or less, which were obtained by the experimental procedure mentioned above.

[10] = test system: Digitaria sanguinalis (DIGSA); assay: C. Herbicidal pre-emergence efficacy, DIGSA; conditions: 320 g/ha, scored after about 3 weeks
Text: as §1, §2

[11] = test system: Matricaria inodora (MATIN); assay: C. Herbicidal pre-emergence efficacy, MATIN; conditions: 320 g/ha, scored after about 3 weeks
Text: as §1, §2

Setaria viridis (SETVI) = assay: C. Herbicidal pre-emergence efficacy, SETVI; conditions: 320 g/ha, scored after about 3 weeks
Text: as §1, §2

Glycine max (GLXMA) = assay: D. Pre-emergence effect on useful plants, GLXMA; conditions: useful plant
Text: as §1, §3

[12] = test system: Abutilon theophrasti (ABUTH); assay: E. Herbicidal post-emergence efficacy, ABUTH; conditions: application rate 320 g/ha
Description: as §4, §5, §6

| Structure (SMILES) | Pre-emergence efficacy against AMARE ([1]; 80 g/ha) | Pre-emergence efficacy against AMARE ([1]; 320 g/ha) | Pre-emergence efficacy against VIOTR in % (Viola tricolor (VIOTR) [2]) | Pre-emergence efficacy against KCHSC in % (Kochia scoparia (KCHSC) [3]; application rate 320 g/ha) | Pre-emergence efficacy against ZEAMX in % (Zea mays (ZEAMX); application rate 80 g/ha) | Pre-emergence efficacy against TRZAS in % ([4]; application rate 80 g/ha) | Pre-emergence efficacy against TRZAS in % ([4]; application rate 320 g/ha) | Pre-emergence efficacy against BRSNW in % (Brassica napus (BRSNW); application rate 80 g/ha) | Post-emergence efficacy against AMARE in % ([5]; application rate 80 g/ha) | Post-emergence efficacy against AMARE in % ([5]; application rate 320 g/ha) | Post-emergence efficacy against PHBPU in % ([6]; application rate 320 g/ha) | Post-emergence efficacy against VERPE in % (Veronica persica (VERPE); application rate 80 g/ha) | Post-emergence efficacy against VERPE in % (Veronica persica (VERPE); application rate 320 g/ha) | Post-emergence efficacy against KCHSC in % (Kochia scoparia (KCHSC) [8]; application rate 80 g/ha) | Post-emergence efficacy against KCHSC in % (Kochia scoparia (KCHSC) [8]; application rate 320 g/ha) | Post-emergence efficacy against TRZAS in % [9] | other results |
| --- | --- | --- | --- | --- | --- | --- | --- | --- | --- | --- | --- | --- | --- | --- | --- | --- | --- |
| N#Cc1cccc(Oc2ncc(Cl)cn2)c1OS(=O)(=O)CC1CC1(Cl)Cl (centres unmarked) [Example I-78] | 100% | 100% | 100% | 100% | 0% | 0% | 0% | 20% | 90% | 100% | 100% | 100% | 100% | 100% | 100% | 0% | Pre-emergence efficacy against KCHSC in % (Kochia scoparia (KCHSC) [3]; application rate 80 g/ha): 100%; Pre-emergence efficacy against ZEAMX in % (Zea mays (ZEAMX); application rate 320 g/ha): 20%; Post-emergence efficacy against PHBPU in % ([6]; application rate 80 g/ha): 90%; Post-emergence efficacy against VIOTR in % (Viola tricolor (VIOTR) [7]; application rate 80 g/ha): 90%; Post-emergence efficacy against VIOTR in % (Viola tricolor (VIOTR) [7]; application rate 320 g/ha): 100% |
| O=S(=O)(CC=C(Cl)Cl)Oc1c(F)cccc1Oc1ncc(Cl)cn1 [Example I-85] | 100% | 100% | 80% | 100% | 0% | 0% | 10% | 0% | 90% | 100% | 90% | 100% | 100% | 80% | 100% | 0% | Pre-emergence efficacy against DIGSA [10]: 100%; Pre-emergence efficacy against MATIN [11]: 80%; Pre-emergence efficacy against SETVI (Setaria viridis (SETVI)): 90%; Pre-emergence efficacy against GLXMA in % (Glycine max (GLXMA); application rate 80 g/ha): 0%; Pre-emergence efficacy against GLXMA in % (Glycine max (GLXMA); application rate 320 g/ha): 0%; Pre-emergence efficacy against BRSNW in % (Brassica napus (BRSNW); application rate 320 g/ha): 0%; Post-emergence efficacy against ABUTH in % [12]: 80% |
